Among the data in patent publication US20230295212A1 (ROME Therapeutics, Inc., priority 2022, published 2023) are IC50 values, retold here.

In one test the target is T1, LINE1 reverse transcriptase (Homo sapiens, UniProt O00370).
T1 construct: expressed in transfected cells; host or cells: HeLa Tet-On 3G (Takara, cat no 631183)
T1 sequence (O00370 whole entry, looked up): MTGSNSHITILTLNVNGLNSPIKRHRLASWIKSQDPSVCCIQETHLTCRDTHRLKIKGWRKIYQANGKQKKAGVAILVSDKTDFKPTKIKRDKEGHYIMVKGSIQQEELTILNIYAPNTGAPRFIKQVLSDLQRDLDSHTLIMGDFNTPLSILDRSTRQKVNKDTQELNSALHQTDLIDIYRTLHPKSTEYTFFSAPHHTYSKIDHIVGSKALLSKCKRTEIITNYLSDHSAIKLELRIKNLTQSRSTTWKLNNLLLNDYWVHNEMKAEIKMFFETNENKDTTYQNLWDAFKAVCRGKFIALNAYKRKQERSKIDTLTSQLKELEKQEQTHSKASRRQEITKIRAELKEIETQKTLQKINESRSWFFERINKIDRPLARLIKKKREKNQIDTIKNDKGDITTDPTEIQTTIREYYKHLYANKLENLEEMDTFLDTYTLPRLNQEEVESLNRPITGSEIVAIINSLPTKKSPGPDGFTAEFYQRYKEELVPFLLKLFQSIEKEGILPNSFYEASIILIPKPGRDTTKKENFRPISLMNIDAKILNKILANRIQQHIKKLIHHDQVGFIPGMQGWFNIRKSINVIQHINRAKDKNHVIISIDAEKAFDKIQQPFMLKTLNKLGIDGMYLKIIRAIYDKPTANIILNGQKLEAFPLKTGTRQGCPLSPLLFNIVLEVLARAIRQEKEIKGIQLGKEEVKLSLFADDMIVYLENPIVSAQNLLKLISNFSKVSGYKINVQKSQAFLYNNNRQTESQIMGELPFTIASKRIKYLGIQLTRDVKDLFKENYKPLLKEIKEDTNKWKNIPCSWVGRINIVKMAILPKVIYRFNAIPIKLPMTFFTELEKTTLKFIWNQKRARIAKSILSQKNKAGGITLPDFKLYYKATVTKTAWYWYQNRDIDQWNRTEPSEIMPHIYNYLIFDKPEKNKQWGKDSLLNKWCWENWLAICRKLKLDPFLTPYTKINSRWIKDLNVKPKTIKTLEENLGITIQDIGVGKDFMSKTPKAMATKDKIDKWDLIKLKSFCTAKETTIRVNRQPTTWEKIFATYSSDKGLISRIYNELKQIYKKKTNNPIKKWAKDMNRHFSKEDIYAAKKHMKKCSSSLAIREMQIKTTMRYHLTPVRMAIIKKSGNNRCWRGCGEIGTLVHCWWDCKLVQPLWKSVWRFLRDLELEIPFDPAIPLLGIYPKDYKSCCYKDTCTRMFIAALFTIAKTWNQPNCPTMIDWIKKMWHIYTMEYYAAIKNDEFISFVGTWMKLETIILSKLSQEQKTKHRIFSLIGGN
Kind of test: Stable artificial-intron Cis LINE1 reporter assay (HeLa Tet-On 3G, Firefly luciferase). In kind it is cell-based. The settings on record: HeLa L1 artificial-intron reporter cells, doxycycline 500 ng/mL, 72 h, class symbols. As for the experimental part: Exemplary compounds, were tested for the ability to inhibit LINE1 reverse transcriptase using a stable artificial-intron Cis LINE1 reporter assay. Assay procedures and results are described below.
A stable HeLa Tet-On 3G (Takara, cat no 631183) cell line expressing a bi-directional inducible LINE1 construct was generated as described in Xie, Y. et al. “Cell division promotes efficient retrotransposition in a stable L1 reporter cell line,” Mobile DNA (2013) 4:10. Single cell clones were screened for high Luciferase expression and the highest expression Firefly expressing clone was chosen for compound testing.
Test compounds were serially diluted in DMSO and spotted in 96-well plates. Subsequently, the HeLa Li artificial-intron reporter cells were plated into the compound-containing wells (8,000 cells/well), and the cells were induced for reporter expression with doxycycline (Sigma-Aldrich cat #D9891) at a final concentration of 500 ng/mL. Luminescence was measured 72 h after plating using the Dual-Glo Luciferase Assay System (Promega cat #E2940) following the manufacturer's instructions. The Firefly Luciferase activity was used to report LINE1 activity.
In general terms: A reporter such as luciferase makes a cellular process visible.
As to `Nc1nc(=O)n([C@@H]2O[C@@](CO)(CCl)[C@@H](O)[C@@H]2Cl)cc1F` [Compound 137, 4-amino-1-[(2R,3S,4R,5R)-3-chloro-5-(chloromethyl)-4-hydroxy-5-(hydroxymethyl)oxolan-2-yl]-5-fluoropyrimidin-2-one], the IC50 (in general, the concentration at which inhibition is half-maximal) fell in the range of 250 to 1000 nM. `C#C[C@]1(CO)O[C@@H](n2cc(C)c(=O)[nH]c2=O)[C@@H](F)[C@@H]1O` [Compound 39, 1-((2R,3S,4R,5R)-5-ethynyl-3-fluoro-4-hydroxy-5-(hydroxymethyl)tetrahydrofuran-2-yl)-5-methylpyrimidine-2,4(1H,3H)-dione] registered an IC50 of 250 to 1000 nM. On the same count and under the same terms, next, `CC[C@]1(CO)O[C@@H](n2cc(F)c(N)nc2=O)[C@@H](F)[C@@H]1O` [Compound 77, 4-amino-1-[(2R,3S,4R,5R)-5-ethyl-3-fluoro-4-hydroxy-5-(hydroxymethyl)oxolan-2-yl]-5-fluoropyrimidin-2-one]: ≤ 50 nM; `C#C[C@]1(CO)O[C@@H](n2ccc(N)nc2=O)C[C@@H]1O` [Compound 41, 4-amino-1-((2R,4S,5R)-5-ethynyl-4-hydroxy-5-(hydroxymethyl)tetrahydrofuran-2-yl)pyrimidin-2(1H)-one]: ≤ 50 nM. Still for that read-out and setting: the same measure for `C[C@@H]1[C@H](n2ccc(N)nc2=O)O[C@@](CO)(CCl)[C@H]1O` [Compound 12, 4-amino-1-((2R,3S,4S,5R)-5-(chloromethyl)-4-hydroxy-5-(hydroxymethyl)-3-methyltetrahydrofuran-2-yl)pyrimidin-2(1H)-one]: 250 to 1000 nM. The same measure, in the same setting: next, `C=C[C@]1(CO)O[C@@H](n2cnc3c(N)nc(F)nc32)[C@@H](F)[C@@H]1O` [Compound 80, (2R,3R,4S,5R)-5-(6-amino-2-fluoropurin-9-yl)-2-ethenyl-4-fluoro-2-(hydroxymethyl)oxolan-3-ol]: 100 to 250 nM.

`Nc1nc(=O)n([C@@H]2O[C@](/C=C/Cl)(CO)[C@@H](O)[C@@H]2F)cc1F` [Compound 131, 4-amino-1-[(2R,3S,4R,5R)-5(E)-(2-chloroethenyl)-3-fluoro-4-hydroxy-5-(hydroxymethyl)oxolan-2-yl]-5-fluoropyrimidin-2-one] displayed an IC50 of 100 to 250 nM. Same read-out and setting: next, `Nc1nc(=O)n([C@@H]2O[C@@](CO)(CBr)[C@@H](O)[C@@H]2F)cc1F` [Compound 86, 4-amino-1-[(2R,3S,4R,5R)-5-(bromomethyl)-3-fluoro-4-hydroxy-5-(hydroxymethyl)oxolan-2-yl]-5-fluoropyrimidin-2-one]: ≤ 50 nM; `C#C[C@]1(CO)O[C@@H](n2ccc(=O)[nH]c2=O)[C@@H](F)[C@@H]1O` [Compound 36, 1-((2R,3S,4R,5R)-5-ethynyl-3-fluoro-4-hydroxy-5-(hydroxymethyl)tetrahydrofuran-2-yl)pyrimidine-2,4(1H,3H)-dione]: > 1000 nM; `Cc1cn([C@H]2C[C@H](O)[C@](CO)(N=[N+]=[N-])O2)c(=O)[nH]c1=O` [Compound 30, 1-((2R,4S,5R)-5-azido-4-hydroxy-5-(hydroxymethyl)tetrahydrofuran-2-yl)-5-methylpyrimidine-2,4(1H,3H)-dione]: > 1000 nM. Turning to `Nc1ccn([C@@H]2O[C@@](CO)(C3CC3)[C@@H](O)[C@@H]2F)c(=O)n1` [Compound 121, 4-amino-1-[(2R,3S,4R,5R)-5-cyclopropyl-3-fluoro-4-hydroxy-5-(hydroxymethyl)oxolan-2-yl] pyrimidin-2-one], the IC50 fell in the range of 100 to 250 nM. Take `O=c1ccn([C@@H]2OC(CO)(CO)[C@@H](O)[C@@H]2F)c(=O)[nH]1` [Compound 3, 1-((2R,3S,4R)-3-fluoro-4-hydroxy-5,5-bis(hydroxymethyl)tetrahydrofuran-2-yl)pyrimidine-2,4(1H,3H)-dione]: the 50% inhibitory concentration (IC50) was > 1000 nM.

As to `C#C[C@]1(CO)O[C@@H](n2cc(C)c(=O)[nH]c2=O)C[C@@H]1O` [Compound 38, 1-((2R,4S,5R)-5-ethynyl-4-hydroxy-5-(hydroxymethyl)tetrahydrofuran-2-yl)-5-methylpyrimidine-2,4(1H,3H)-dione], the IC50 is > 1000 nM. For `CC[C@]1(CO)O[C@@H](n2cc(F)c(N)nc2=O)[C@@H](O)[C@@H]1O` [Compound 78, 4-amino-1-((2R,3S,4S,5R)-5-ethyl-3,4-dihydroxy-5-(hydroxymethyl)tetrahydrofuran-2-yl)-5-fluoropyrimidin-2(1H)-one], the IC50 lay in the range of 50 to 100 nM.

On to `CC[C@]1(CO)O[C@@H](n2cnc3c(N)nc(F)nc32)[C@@H](F)[C@@H]1O` [Compound 81, (2R,3R,4S,5R)-5-(6-amino-2-fluoropurin-9-yl)-2-ethyl-4-fluoro-2-(hydroxymethyl)oxolan-3-ol], for which the IC50 is 100 to 250 nM.

With `C#C[C@@H]1[C@H](n2ccc(N)nc2=O)O[C@](C)(CO)[C@H]1O` [Compound 20, 4-amino-1-((2R,3S,4S,5R)-3-ethynyl-4-hydroxy-5-(hydroxymethyl)-5-methyltetrahydrofuran-2-yl)pyrimidin-2(1H)-one], the IC50 is > 1000 nM.

With `Nc1ccn([C@H]2C[C@H](O)[C@](CO)(CC(F)(F)F)O2)c(=O)n1` [Compound 62, 4-amino-1-[(2R,4S,5R)-4-hydroxy-5-(hydroxymethyl)-5-(2,2,2-trifluoroethyl)oxolan-2-yl] pyrimidin-2-one], the half-inhibitory concentration (IC50) lay within 250 to 1000 nM. Consider `Nc1nc(=O)n([C@@H]2O[C@@](CO)(C3CC3)[C@@H](O)[C@@H]2F)cc1F` [Compound 122, 4-amino-1-[(2R,3S,4R,5R)-5-cyclopropyl-3-fluoro-4-hydroxy-5-(hydroxymethyl)oxolan-2-yl]-5-fluoropyrimidin-2-one], for which the IC50 fell in the range of 250 to 1000 nM. Same read-out and setting: next, `Nc1nc(=O)n([C@@H]2O[C@@](CO)(CF)[C@@H](O)[C@@H]2O)cc1F` [Compound 72, 4-amino-5-fluoro-1-((2R,3S,4S,5R)-5-(fluoromethyl)-3,4-dihydroxy-5-(hydroxymethyl)tetrahydrofuran-2-yl)pyrimidin-2(1H)-one]: 250 to 1000 nM.

For `O=c1[nH]c(=O)n([C@@H]2O[C@@](CO)(CCO)[C@@H](O)[C@@H]2F)cc1F` [Compound 179, 5-fluoro-1-((2R,3S,4R,5R)-3-fluoro-4-hydroxy-5-(2-hydroxyethyl)-5-(hydroxymethyl)tetrahydrofuran-2-yl) pyrimidine-2,4(1H,3H)-dione], the IC50 is > 1000 nM. Same read-out and setting: next, `C=CCC1(CO)O[C@@H](n2ccc(N)nc2=O)C[C@@H]1O` (stereo partly drawn) [Compound 56, 1-((2R,4S)-5-allyl-4-hydroxy-5-(hydroxymethyl)tetrahydrofuran-2-yl)-4-aminopyrimidin-2(1H)-one]: 100 to 250 nM; `CC[C@]1(CO)O[C@@H](n2cnc3c(=O)[nH]c(N)nc32)[C@@H](F)[C@@H]1O` [Compound 68, 2-amino-9-((2R,3S,4R,5R)-5-ethyl-3-fluoro-4-hydroxy-5-(hydroxymethyl)tetrahydrofuran-2-yl)-1,9-dihydro-6H-purin-6-one]: 100 to 250 nM; `C=C[C@]1(COC(=O)C(C)C)O[C@@H](n2ccc(N)nc2=O)C[C@@H]1OC(=O)C(C)C` [Compound 53, [(2R,3S,5R)-5-(4-amino-2-oxopyrimidin-1-yl)-2-ethenyl-3-[(2-methylpropanoyl)oxy]oxolan-2-yl] methyl 2-methylpropanoate]: 250 to 1000 nM.

As to `CC[C@]1(CO)O[C@@H](n2ccc(N)nc2=O)C[C@@H]1O` [Compound 44, 4-amino-1-((2R,4S,5R)-5-ethyl-4-hydroxy-5-(hydroxymethyl)tetrahydrofuran-2-yl)pyrimidin-2(1H)-one], the IC50 is ≤ 50 nM. Same read-out and setting: next, `Cc1cn([C@H]2C[C@H](F)[C@@](C)(CO)O2)c(=O)[nH]c1=O` [Compound 180, 1-((2R,4S,5R)-4-fluoro-5-(hydroxymethyl)-5-methyltetrahydrofuran-2-yl)-5-methylpyrimidine-2,4(1H,3H)-dione]: > 1000 nM; `C=C[C@]1(CO)O[C@@H](n2ccc(N)nc2=O)C[C@@H]1O` [Compound 43, 4-amino-1-((2R,4S,5R)-4-hydroxy-5-(hydroxymethyl)-5-vinyltetrahydrofuran-2-yl)pyrimidin-2(1H)-one]: ≤ 50 nM. Still for that read-out and setting: next, `Nc1ccn([C@H]2C[C@H](O)[C@](CO)(CF)O2)c(=O)n1` [Compound 45, 4-amino-1-((2R,4S,5R)-5-(fluoromethyl)-4-hydroxy-5-(hydroxymethyl)tetrahydrofuran-2-yl)pyrimidin-2(1H)-one]: 50 to 100 nM.

The same test, now with this note: HeLa L1 artificial-intron reporter cells, doxycycline 500 ng/mL, 72 h, numeric bounds.
With `Nc1nc2c(ncn2[C@@H]2O[C@@](CO)(CCl)[C@@H](O)[C@@H]2O)c(=O)[nH]1` [Compound 94, 2-amino-9-[(2R,3S,4S,5R)-5-(chloromethyl)-3,4-dihydroxy-5-(hydroxymethyl)oxolan-2-yl]-1H-purin-6-one], the IC50 is > 30000 nM. Turning to `N#C[C@]1(CO)O[C@@H](n2cc(F)c(N)nc2=O)[C@@H](F)[C@@H]1O` [Compound 166], the IC50 is > 30000 nM. On the same count and under the same terms, next, `Nc1ncnn2c([C@H]3C[C@H](O)[C@](CO)(CF)O3)ccc12` [Compound 79, (2R,3S,5R)-5-(4-aminopyrrolo[2,1-f] [1,2,4]triazin-7-yl)-2-(fluoromethyl)-2-(hydroxymethyl)tetrahydrofuran-3-ol]: > 30000 nM; `CC(O)[C@]1(CO)O[C@@H](n2cc(F)c(=O)[nH]c2=O)[C@@H](F)[C@@H]1O` (stereo partly drawn) [Compound 162, 5-fluoro-1-[(2R,3S,4R,5S)-3-fluoro-4-hydroxy-5-(1-hydroxyethyl)-5-(hydroxymethyl)oxolan-2-yl]-3H-pyrimidine-2,4-dione]: > 30000 nM.
